In ChEMBL document CHEMBL1157539, “Thousands of chemical starting points for antimalarial lead identification” (Nature, 2010) one finds XC50 data, which are given here for 86 compounds.

The test relates to Plasmodium falciparum. Kind of test: GSK_TCMDC: Inhibition of Plasmodium falciparum 3D7 in whole erythrocytes, using parasite LDH activity as an index of growth. Type of test: functional, organism-based. Particulars: Plasmodium falciparum, 3D7.

`O=C(Nc1ccc(Cl)cc1)N[C@H]1CCN(Cc2ccc(OCCCN3CCCCC3)cc2)C1` returned an XC50 of 671 nM.

The compound `O=C(Nc1cccc(-c2cccc(-c3nc4cc(F)ccc4[nH]3)c2)c1)Nc1ccc2c(c1)OCO2` came in with an XC50 of 137 nM.

Take `CCC(C)C#Cc1c(C)nc(N)nc1N` (stereo unspecified): the XC50 is 262 nM.

As for `Cc1[nH]c2ccc(O)cc2c1C1CCN(CC2CCC(NC(=O)/C=C/c3c(Cl)cccc3Cl)CC2)CC1` (stereo unspecified), the XC50 turned out to be 817 nM.

In the case of `O=C(NCCCN1CCCCC1)c1ccc(Nc2nccc(Nc3ccc(Oc4ccccc4)cc3)n2)cc1`, the XC50 is 626 nM.

`CC(C)CNCc1cccc(-c2cccc(CN(CCN(C)C)C(=O)NCCc3ccccc3)c2)c1` showed an XC50 of 693 nM.

For `O=C(/C=C/c1ccc(Cl)cc1)NCCCCCN1CCC(c2c[nH]c3ccccc23)CC1`, the XC50 was determined as 838 nM.

`CN(C)CCOc1cc(NC(=O)Nc2ccc3c(c2)CCCC3=O)ccc1I` had an XC50 of 939 nM.

Consider `COc1ccc(CNc2nc(NCc3ccccc3)c3cc(OC)c(OC)cc3n2)cc1OC`, for which the XC50 came out at 540 nM.

Regarding `O=C(Nc1ccc(N2CCCCC2)c(Cl)c1)c1ccc(Br)o1`, the XC50 was 549 nM.

In the case of `O=c1cc(NCCC(CNCCc2ccccc2)NCc2cc(Br)cc(Br)c2)[nH]c2ccccc12` (stereo unspecified), the XC50 turned out to be 514 nM.

On to `COc1cc(-c2nc(-c3ccc(C(=O)c4ccc(F)cc4)cc3)c(-c3ccccc3)[nH]2)cc(OC)c1O`, for which the XC50 is 659 nM.

Take `O=C(CSc1nnc(O)n1Cc1ccccc1)Nc1ccccc1-c1ccccc1`: the XC50 worked out at 953 nM.

`Cc1ccccc1C1CCN(C2CCC(NC(=O)/C=C/c3ccc(C#N)cc3)CC2)CC1` (stereo unspecified) displayed an XC50 of 1170 nM.

`CCN(CCNC(=O)Nc1cc(C(F)(F)F)cc(C(F)(F)F)c1)c1cccc(C)c1` had an XC50 of 804 nM.

With `Cc1ccc(NC(=O)N2CCCN(CCCCCNC(=O)/C=C/c3ccc(Cl)c(Cl)c3)CC2)cc1C`, the XC50 amounted to 773 nM.

As for `Clc1cc(Cl)cc(Nc2ccnc(Nc3cc(Cl)cc(Cl)c3)n2)c1`, the XC50 worked out at 672 nM.

`COc1cc2nc(N3CCC(CNC(=O)c4ccc(-c5ccc(C(=O)N(C)C)cc5)cc4)CC3)nc(N)c2cc1OC` returned an XC50 of 746 nM.

Compound `Cc1ccc(C)c(S(=O)(=O)Nc2ccc(Br)cc2C(=O)Nc2cccc(C(F)(F)F)c2)c1` registered an XC50 of 1210 nM.

As for `COc1ccc(CNc2ccnc(-n3cnc4cc(C)c(C)cc43)n2)cc1Cl`, the XC50 was 274 nM.

`COc1ccc2nccc([C@@H](O)CN3CCC(NC(=O)c4[nH]c5ccccc5c4-c4ccccc4)CC3)c2c1` yielded an XC50 of 904 nM.

As to `COc1cc(CCCOc2c(N)nc(N)nc2N)cc(OC)c1OC`, the XC50 worked out at 1220 nM.

For `O=C(NCCCCN1CCC(c2ccc([N+](=O)[O-])cc2)CC1)c1ccc(NC(=O)c2ccc(Cl)cc2)cc1`, the XC50 came to 757 nM.

`CCOc1ccc2c(=NN=Cc3cccc(OC)c3)cc(C)[nH]c2c1`: the XC50 was 123 nM.

In turn, `O=C(Nc1ccc(-c2nc3ccccc3[nH]2)cc1)c1ccc(N2CCCC2)c([N+](=O)[O-])c1` had an XC50 of 678 nM.

With `Cn1nc(-c2ccc(CN[C@@H]3CCc4ccc(O)cc43)cc2)c2cnc(NCCCN3CCCC3)nc21`, the XC50 amounted to 797 nM.

`CC(C)c1ccc(-c2noc(SCC(=O)N(C)c3ccc(F)cc3)n2)cc1` returned an XC50 of 1170 nM.

Compound `O=C(c1ccc(O)c(-c2cc(Cl)cc(Cl)c2)c1)N(CCO)CCO` gave an XC50 of 908 nM.

Regarding `COc1ccc(NC(=O)c2cc(NC(=O)C3(N)CC3)c(=O)n(Cc3ccc(C(N)=O)cc3)c2)cc1`, the XC50 worked out at 792 nM.

As for `Clc1ccccc1C=NN=c1cc[nH]c2ccccc12`, the XC50 turned out to be 850 nM.

The compound `N=C1N=C(N)NC2(CCCCC2)N1OCCCOc1cccc2ccccc12` registered an XC50 of 3.2 nM.

The compound `CN1CCC(Oc2ccc(CN3CC[C@H](NC(=O)c4cccc(C#N)c4)C3)c3ccccc23)C1` (stereo partly specified) came in with an XC50 of 804 nM.

Compound `CCCCNCc1ccc(-c2nc(CN(CCCn3ccnc3)C(=O)Nc3ccc(CC)cc3)cs2)cc1` returned an XC50 of 830 nM.

In turn, `c1nc(CCNc2nc(Nc3ccc4c(c3)OCO4)nc(NC3CCCC3)n2)c[nH]1` returned an XC50 of 1150 nM.

Turning to `CN1CCC(N2CCN(Cc3cccc(-c4ccc(-c5nc6cc(F)ccc6[nH]5)cc4)c3)CC2)CC1`, the XC50 was 107 nM.

Compound `COc1ccccc1NC(=O)Nc1cccc(-c2ccc(-c3nc4cc(C(F)(F)F)ccc4[nH]3)cc2)c1` yielded an XC50 of 306 nM.

As for `C=CC[C@H](NC(=O)c1ccc(NS(=O)(=O)c2ccc3nc(N)[nH]c(=O)c3c2)cc1)C(=O)OCCCC`, the XC50 is 154 nM.

As to `CC1(C)N=C(N)N=C(N)N1c1cccc(C(F)(F)F)c1`, the XC50 was 8.62 nM.

For `Cc1cc(C2CCN(CCCCNC(=O)c3ccc(-c4ccc(C(F)(F)F)cc4)cc3)CC2)c(C)cc1OCCO`, the XC50 was determined as 885 nM.

Take `CC(C)(CNCc1ccc(OC(F)(F)F)cc1)c1nc(-c2ccc(Cl)c(O)c2)c(-c2ccncc2)[nH]1`: the XC50 was determined as 545 nM.

On to `Cc1cc(CNCCCCCNCc2cccc([N+](=O)[O-])c2)ccc1O`, for which the XC50 turned out to be 784 nM.

Compound `Oc1ccc(CCNc2nc(N/N=C/c3ccc(Cl)cc3)nc(N3CCNCC3)n2)cc1` had an XC50 of 583 nM.

Take `NCc1ccc(CNCc2ccc(-c3ccc(-c4nc5cc(F)ccc5[nH]4)cc3)cc2)cc1`: the XC50 amounted to 402 nM.

The compound `COC(=O)CCCCOc1cc(Cc2cnc(N)nc2N)cc(OC)c1OC` displayed an XC50 of 173 nM.

`Cc1cc(N(C)C)nc(Nc2ccc(NC(=O)c3cccc(F)c3)cc2)n1` had an XC50 of 998 nM.

In the case of `CN1CCN(CCCN(Cc2cccc(-c3ccc(CNCCc4ccccc4)cc3)c2)C(=O)c2cccs2)CC1`, the XC50 worked out at 716 nM.

Regarding `Cc1cccc2nc(-c3ccc(-c4ccc(NC(=O)c5cncn5C)cc4)s3)[nH]c12`, the XC50 came to 670 nM.

As to `O=C(/C=C/c1ccccc1Cl)NC1CCC(CN2CCC(c3c[nH]c4ccncc34)CC2)CC1` (stereo unspecified), the XC50 came to 334 nM.

`CNC(=O)C1Cc2c([nH]c3ccc(Cl)cc23)C2(CCN(CCc3ccccc3)CC2)N1` (stereo unspecified): the XC50 was 893 nM.

Turning to `Cc1c(NCCCNCc2cc(Cl)cc(Cl)c2Cl)[nH]c2ccccc2c1=O`, the XC50 came out at 314 nM.

The compound `COc1ccc2ccccc2c1CON1C(=N)N=C(N)NC1(C)C` registered an XC50 of 28.8 nM.

As for `CCNc1cc(C(=O)N[C@@H](Cc2ccccc2)[C@H](O)CN[C@@H](C)c2ccccc2)cc(N2CCCC2=O)c1`, the XC50 amounted to 666 nM.

`O=C(Cc1ccccn1)Nc1cccc(-c2cccc(-c3nc4cc(C(F)(F)F)ccc4[nH]3)c2)c1` registered an XC50 of 610 nM.

`N=C(N)NN=Cc1cc2ccccc2c2ccccc12` yielded an XC50 of 180 nM.

In turn, `Oc1cccc(Nc2ccnc3cc(-c4cc5ccccc5o4)ccc23)c1` had an XC50 of 763 nM.

As for `COc1ccc2nccc([C@@H](O)CN3CCC(NCc4cc5c(cc4F)SCC(=O)N5)CC3)c2n1`, the XC50 was 1000 nM.

Regarding `COCCNCc1ccc(-c2cccc(CN(C(=O)NCCc3ccccc3)C3CCN(Cc4ccccc4)CC3)c2)cc1`, the XC50 was 918 nM.

In turn, `O=C(Nc1ccc(OC(F)(F)F)cc1)Nc1ccc([N+](=O)[O-])cc1` registered an XC50 of 878 nM.

For the compound `C=C[C@H]1CN2CC[C@H]1C[C@@H]2[C@@H](O)c1ccnc2ccccc12` [CINCHONINE], the XC50 stood at 766 nM.

The compound `CC(=O)Nc1cccc(Nc2nccc(-c3c(-c4cccc(NC(=O)c5c(F)cccc5F)c4)nn4ncccc34)n2)c1` gave an XC50 of 184 nM.

Compound `COC(=O)c1cccc(CNCc2cccc(-c3cccc(-c4nc5ccccc5[nH]4)c3)c2)c1` gave an XC50 of 504 nM.

On to `COc1ccc(CN2CCCN(Cc3cccc(NC(=O)c4ccc5ccccc5c4)c3)CC2)cc1`, for which the XC50 stood at 1000 nM.

`CNCCNCc1cccc(-c2ccc(-c3nc4cccc(C)c4[nH]3)s2)c1` yielded an XC50 of 953 nM.

Compound `Cc1cccc(C)c1CNc1nc(N2CCOCC2)cc2c(C)c(C)[nH]c12` returned an XC50 of 1240 nM.

Turning to `Nc1cccc(CNCc2cccc(-c3cccc(-c4nc5ccccc5[nH]4)c3)c2)c1`, the XC50 is 615 nM.

`CN1CCN(c2cc(-c3cccc(C(F)(F)F)c3)nc(-c3ccncc3)n2)CC1`: the XC50 is 731 nM.

`COc1ccc(CNCc2ccc(-c3ccc(-c4nc5cc(C(F)(F)F)ccc5[nH]4)cc3)cc2)cc1` yielded an XC50 of 135 nM.

Consider `CN(C)c1ccc(-c2cscc2C(=O)NC2CCCN(Cc3cccnc3)C2)cc1` (stereo unspecified), for which the XC50 worked out at 859 nM.

With `CCCCCCOc1ccc(C(=O)NCCC2CCN(CCCCCNC(=O)C=Cc3ccc(Cl)c(Cl)c3)CC2)cc1`, the XC50 was 656 nM.

For `CCCN(CCC)C(C)CCC(C)Nc1c2ccc(Cl)cc2nc2ccc(OC)cc12` (stereo unspecified), the XC50 amounted to 70.8 nM.

Compound `Cc1[nH]c(C)c(-c2ccc(Oc3cccc(C(F)(F)F)c3)cc2)c(=O)c1Br` returned an XC50 of 7.69 nM.

In the case of `C=CCc1cc(Br)ccc1OCCCOc1c(N)nc(N)nc1N`, the XC50 came to 192 nM.

The compound `N#Cc1cccc(C(=O)Nc2ccc(-c3cccc(CN4CCC(O)CC4)c3)cc2)c1` yielded an XC50 of 995 nM.

Take `O=C(Nc1ccc(OC2CCN(Cc3ccco3)CC2)c(Cl)c1)c1ccc2ncccc2c1`: the XC50 was found to be 949 nM.

On to `COc1cc(NC(=O)/C=C/c2ccccc2OC(F)(F)F)cc(OCCN2CCN(CCN3CCOCC3)CC2)c1`, for which the XC50 was 157 nM.

For the compound `COc1ccc(C2C(C(=O)Nc3ccccc3)=C(C)Nc3c(C(=O)Nc4ccccc4)cnn32)cc1` (stereo unspecified), the XC50 is 1310 nM.

Compound `COc1ccc2nccc([C@@H](O)CN3CCC(NCc4cc5c(F)ccc(F)c5[nH]4)CC3)c2c1` showed an XC50 of 144 nM.

`CCCC(C)Nc1nc(C)cc(N[C@@H](CC(C)C)C(=O)NC2CCCC2)n1` (stereo partly specified) had an XC50 of 1080 nM.

Take `Cc1c(CNCCCNc2cc(=O)c3ccccc3[nH]2)sc(-c2ccco2)c1Br`: the XC50 was 1020 nM.

`COc1ccc(N2C(N)=NC(N)=NC2(C)C)cc1OC` had an XC50 of 311 nM.

Consider `Cc1noc(C)c1CN1Cc2ccccc2OC2(CCN(Cc3c[nH]c4cnccc34)CC2)C1`, for which the XC50 came to 1070 nM.

`CNCCCn1c(N(C)C)nc2cc(-n3cnc4cc(-c5ccc(Cl)cc5)sc4c3=O)ccc21` registered an XC50 of 1140 nM.

`O=C(C=Cc1cn(-c2ccccc2)nc1-c1cccs1)N1CCN(c2ccncc2)CC1` gave an XC50 of 721 nM.

`COc1ccc2nccc([C@@H](O)CN3CCC(NC(=O)C(c4cc5ccccc5s4)N4CCN(c5ccccc5OC)CC4)CC3)c2c1` (stereo partly specified): the XC50 came out at 160 nM.

Take `COc1cc(NC(=O)c2sc(-c3ccc(Cl)cc3)cc2NC(=O)c2cccc(N(C)C)c2)ccc1OCCN1CCCC1`: the XC50 was 709 nM.

The compound `CC(=O)NC(c1cccs1)c1cc(Cl)c2cccnc2c1O` (stereo unspecified) registered an XC50 of 317 nM.
